Test results as given in patent publication US20230017045A1, “PYRIDINE AND PYRIMIDINE CARBOXYLATE HERBICIDES AND METHODS OF USE THEREOF” (Dow AgroSciences LLC, priority 2017, published 2023).
Where two headings read alike, the source gives them in different places.

Tested on: test plant species
Assay: Post-emergent herbicidal activity test (greenhouse, foliar spray, visual growth reduction)
Type: in vivo
Conditions: post-emergence, 336 h, 140 g ai/ha
How it was run: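 Plants grown in greenhouse (15 h photoperiod, 23-29° C day/22-28° C night) to first or second true leaf stage were sprayed overhead with compound in acetone/water/isopropanol/DMSO/crop oil/X-77 carrier at 187 L/ha. Injury was scored visually after 14 d on a 0-100% scale versus solvent-blank and untreated controls.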

[1] = ALOMY: blackgrass (Alopecurus myosuroides), 14 days after application, read-out: Visual Growth Reduction (%) 14 Days After Application, ALOMY
[2] = AMARE: redroot pigweed (Amaranthus retroflexus), 14 days after application, read-out: Visual Growth Reduction (%) 14 Days After Application, AMARE
[3] = AVEFA: wild oat (Avena fatua), 14 days after application, read-out: Visual Growth Reduction (%) 14 Days After Application, AVEFA
[4] = CHEAL: lambsquarters (Chenopodium album), 14 days after application, read-out: Visual Growth Reduction (%) 14 Days After Application, CHEAL
[5] = CIRAR: canada thistle (Cirsium arvense), 14 days after application, read-out: Visual Growth Reduction (%) 14 Days After Application, CIRAR
[6] = CYPES: yellow nutsedge (Cyperus esculentus), 14 days after application, read-out: Visual Growth Reduction (%) 14 Days After Application, CYPES
[7] = DIGSA: crabgrass (Digitaria sanguinalis), 14 days after application, read-out: Visual Growth Reduction (%) 14 Days After Application, DIGSA
[8] = ECHCG: barnyardgrass (Echinochloa crus-galli), 14 days after application, read-out: Visual Growth Reduction (%) 14 Days After Application, ECHCG
[9] = IPOHE: ivy-leaf morning glory (Ipomoea hederacea), 14 days after application, read-out: Visual Growth Reduction (%) 14 Days After Application, IPOHE
[10] = KCHSC: kochia (Bassia scoparia), 14 days after application, read-out: Visual Growth Reduction (%) 14 Days After Application, KCHSC
[11] = ORYSA: rice (Oryza sativa), 14 days after application, read-out: Visual Growth Reduction (%) 14 Days After Application, ORYSA
[12] = SETFA: giant foxtail (Setaria faberi), 14 days after application, read-out: Visual Growth Reduction (%) 14 Days After Application, SETFA
[13] = SORVU: grain sorghum (Sorghum vulgare), 14 days after application, read-out: Visual Growth Reduction (%) 14 Days After Application, SORVU
[14] = STEME: common chickweed (Stellaria media), 14 days after application, read-out: Visual Growth Reduction (%) 14 Days After Application, STEME
[15] = TRZAS: wheat, spring (Triticum aestivum), 14 days after application, read-out: Visual Growth Reduction (%) 14 Days After Application, TRZAS
[16] = blackgrass (Alopecurus myosuroides), 14 Days After Application, read-out: Visual Growth Reduction (%) ALOMY
[17] = canada thistle (Cirsium arvense), 14 Days After Application, read-out: Visual Growth Reduction (%) CIRAR
[18] = crabgrass (Digitaria sanguinalis), 14 Days After Application, read-out: Visual Growth Reduction (%) DIGSA
[19] = lambsquarters (Chenopodium album), 14 Days After Application, read-out: Visual Growth Reduction (%) CHEAL
[20] = redroot pigweed (Amaranthus retroflexus), 14 Days After Application, read-out: Visual Growth Reduction (%) AMARE
[21] = wild oat (Avena fatua), 14 Days After Application, read-out: Visual Growth Reduction (%) AVEFA
[22] = yellow nutsedge (Cyperus esculentus), 14 Days After Application, read-out: Visual Growth Reduction (%) CYPES

SMILES | pest or weed control at 140 g/ha [1] [%] | pest or weed control at 140 g/ha [2] [%] | pest or weed control at 140 g/ha [3] [%] | pest or weed control at 140 g/ha [4] [%] | pest or weed control at 140 g/ha [5] [%] | pest or weed control at 140 g/ha [8] [%] | pest or weed control at 140 g/ha [9] [%] | pest or weed control at 140 g/ha [10] [%] | pest or weed control at 140 g/ha [11] [%] | pest or weed control at 140 g/ha [12] [%] | pest or weed control at 140 g/ha [13] [%] | pest or weed control at 140 g/ha [14] [%] | pest or weed control at 140 g/ha [15] [%] | pest or weed control at 140 g/ha [16] [%] | pest or weed control at 140 g/ha [17] [%] | pest or weed control at 140 g/ha [18] [%] | pest or weed control at 140 g/ha [19] [%] | pest or weed control at 140 g/ha [20] [%] | pest or weed control at 140 g/ha [21] [%] | pest or weed control at 140 g/ha [22] [%] | also measured
COC(=O)c1nc(-c2ccc(SC(F)(F)F)cc2Cl)ccc1Cl [F90, Methyl 3-chloro-6-(2-chloro-4-((trifluoromethyl)thio)phenyl) picolinate] | 0 to 29 | 75 to 84 | 0 to 29 | 75 to 84 | 85 to 94 | 0 to 29 | 75 to 84 | 30 to 44 | 0 to 29 | 45 to 59 | 60 to 74 | 0 to 29 | 0 to 29 |  |  |  |  |  |  |  | pest or weed control at 140 g/ha [6]: 0 to 29%; pest or weed control at 140 g/ha [7]: 60 to 74%
COC(=O)c1nc(-c2ccc(SC)cc2)c(F)cc1Cl [F248, Methyl 3-chloro-5-fluoro-6-(4-(methylthio)phenyl) picolinate] |  |  |  |  |  | 0 to 29 | 30 to 44 | 0 to 29 | 0 to 29 | 0 to 29 | 0 to 29 | 0 to 29 | 0 to 29 | 0 to 29 | 0 to 29 | 60 to 74 | 0 to 29 | 0 to 29 | 0 to 29 | 0 to 29 | 
COC(=O)c1nc(-c2ccc(C(F)(F)F)cc2C#N)ccc1Cl [F24, Methyl 3-chloro-6-(2-cyano-4-(trifluoromethyl)phenyl) picolinate] | 0 to 29 | 85 to 94 | 0 to 29 | 95 to 100 | 95 to 100 | 85 to 94 | 95 to 100 | 60 to 74 | 0 to 29 | 45 to 59 | 85 to 94 | 0 to 29 | 0 to 29 |  |  |  |  |  |  |  | pest or weed control at 140 g/ha [6]: 0 to 29%; pest or weed control at 140 g/ha [7]: 85 to 94%
COC(=O)c1nc(-c2ccc(C)cc2)c(F)cc1Cl [F249, Methyl 3-chloro-5-fluoro-6-(p-tolyl)picolinate] |  |  |  |  |  | 0 to 29 | 0 to 29 | 0 to 29 | 0 to 29 | 0 to 29 | 0 to 29 | 0 to 29 | 0 to 29 | 0 to 29 | 0 to 29 | 0 to 29 | 60 to 74 | 0 to 29 | 0 to 29 | 0 to 29 | 
COC(=O)c1nc(-c2ccc(OC)cc2)c(F)cc1Cl [F365, Methyl 3-chloro-5-fluoro-6-(4-methoxyphenyl) picolinate] |  |  |  |  |  | 0 to 29 | 0 to 29 | 0 to 29 | 0 to 29 | 0 to 29 | 0 to 29 | 0 to 29 | 0 to 29 | 0 to 29 | 0 to 29 | 0 to 29 | 0 to 29 | 0 to 29 | 0 to 29 | 0 to 29 | 
COC(=O)c1nc(-c2ncc(Cl)c(C(F)F)c2Cl)ccc1Cl [F184] | 0 to 29 | 60 to 74 | 0 to 29 | 60 to 74 | 45 to 59 | 85 to 94 | 95 to 100 | 0 to 29 | 30 to 44 | 85 to 94 | 95 to 100 | 0 to 29 | 30 to 44 |  |  |  |  |  |  |  | pest or weed control at 140 g/ha [6]: 0 to 29%; pest or weed control at 140 g/ha [7]: 60 to 74%
COC(=O)c1nc(-c2ccc(C#N)cc2)c(F)cc1Cl [F168, Methyl 3-chloro-6-(4-cyanophenyl)-5-fluoropicolinate] | 0 to 29 | 30 to 44 | 0 to 29 | 45 to 59 | 0 to 29 | 30 to 44 | 60 to 74 | 0 to 29 | 0 to 29 | 30 to 44 | 30 to 44 | 0 to 29 | 0 to 29 |  |  |  |  |  |  |  | pest or weed control at 140 g/ha [6]: 0 to 29%; pest or weed control at 140 g/ha [7]: 60 to 74%
COC(=O)c1nc(-c2ccc(C(F)(F)F)c(C)c2Cl)c(F)cc1Cl [F339, Methyl 3-chloro-6-(2-chloro-3-methyl-4-(trifluoromethyl)phenyl)-5-fluoropicolinate] |  |  |  |  |  | 0 to 29 | 95 to 100 | 85 to 94 | 0 to 29 | 0 to 29 | 60 to 74 | 0 to 29 | 0 to 29 | 0 to 29 |  | 0 to 29 | 95 to 100 | 95 to 100 | 0 to 29 | 60 to 74 | 
N#Cc1cc(-c2nc(C(=O)O)c(Cl)cc2F)c(Cl)cc1C(F)(F)F [F329, 3-Chloro-6-(2-chloro-5-cyano-4-(trifluoromethyl)phenyl)-5-fluoropicolinic acid] |  |  |  |  |  | 60 to 74 | 95 to 100 | 60 to 74 | 0 to 29 | 85 to 94 | 75 to 84 | 0 to 29 | 45 to 59 | 0 to 29 | 85 to 94 | 75 to 84 | 75 to 84 | 60 to 74 | 60 to 74 | 0 to 29 | 
COC(=O)c1nc(-c2ccc(OC(F)F)cc2Cl)c(F)cc1Cl [F200, Methyl 3-chloro-6-(2-chloro-4-(difluoromethoxy)phenyl)-5-fluoropicolinate] |  |  |  |  |  | 75 to 84 | 95 to 100 | 95 to 100 | 0 to 29 | 85 to 94 | 95 to 100 | 30 to 44 | 75 to 84 | 45 to 59 | 95 to 100 | 95 to 100 | 95 to 100 | 95 to 100 | 60 to 74 | 0 to 29 | 
